Measurements reported in US20060078919A1, “Diagnostic test kit and methods of diagnosis and treatment of helicobacter SPP. associated infections” (Harry C. Gurney Janice Gurney, priority 2004, published 2006).

System: Helicobacter infection
Assay: Vac A treatment of patients with pemphygus, allergic dermatitis and atopy
Assay type: in vivo
Settings: more chronic and persistent cases, 25 to 75 mg bid
Method: Vacuolating Toxin A (recombinant Vac A; Austral Biologicals, catalog number HPA-5010-4) at 0.01 mg/ml in bacteriostatic water and 0.2 ml was injected subcutaneously 2-6 times per day at intervals of at least one hour to patients with various conditions associated with evidence of Helicobacter infection.

## CN(C)CCOC(c1ccccc1)c1ccccc1 [diphenhydramine]
  use as supplement to Vac A therapy: used successfully
